Source: patent publication US20120196791A1, “COMBINATION THERAPIES USING ANTIBACTERIAL AMINOGLYCOSIDE COMPOUNDS” (Achaogen, Inc., priority 2009, published 2012)
Like-named read-outs stand apart in the source and are kept apart here.

Tested on: S. aureus strains
Experiment: MIC by macrodilution
Format: cell-based
Settings: Staphylococcus aureus
From the text: “MIC”, which stands for minimum inhibitory concentration, refers to that concentration, in μg/mL, of a compound of this invention that inhibits the growth and/or proliferation of a strain of bacteria by at least 80% compared to an untreated control as determined by visual inspection of a liquid culture.
Synergy time-kill was used to test the activity of Example 1, alone and in combination with daptomycin (DAP), ceftobiprole (BPR), and linezolid (LZD), against 25 S. aureus strains. 25 clinical isolates included 2 hVISA, 2 VISA, and 5 VRSA, 10 hospital acquired and 6 community acquired MRSA strains. MICs were determined by macrodilution and time-kill was used to verify the activity of all four agents alone. MICs were predetermined by macrodilution in cation-adjusted Mueller-Hinton broth (BBL Microbiology Systems, Cockeysville, Md.) according to standard methodology. Daptomycin susceptibility testing was performed in Mueller-Hinton broth adjusted to 50 μg/mL of calcium according to standard methodology. All strains were tested by time-kill methodology with each compound alone according to standard methods. Cultures were initiated by adding 35-μL aliquots of suspensions into 5 mL of broth. Viability counts (100-μL aliquots) in synergy tests were performed at 0, 3, 6, 12, and 24 h in a shaking water bath at 35° C. with final inocula of between 5×10^5 and 5×10^6 CFU/mL. Only plates with 30 to 300 colonies were counted.

[1] = ATCC 33591 / MRSA, Strain 13, ATCC33591 HA-MRSA, read-out: MIC
[2] = MRSA, Strain 6, CA-MRSA, PVL+, read-out: MIC
[3] = MRSA, Strain 7, CA-MRSA, PVL+, read-out: MIC
[4] = MRSA, Strain 8, CA-MRSA, PVL+, read-out: MIC
[5] = MRSA, Strain 14, HA-MRSA, read-out: MIC
[6] = MRSA, Strain 15, HA-MRSA, read-out: MIC
[7] = MRSA, Strain 16, HA-MRSA, read-out: MIC
[8] = MRSA, Strain 17, HA-MRSA, read-out: MIC
[9] = MRSA, Strain 18, HA-MRSA, read-out: MIC
[10] = MRSA, Strain 19, HA-MRSA, read-out: MIC
[11] = MRSA, Strain 20, HA-MRSA, read-out: MIC
[12] = MRSA, Strain 21, HA-MRSA, read-out: MIC
[13] = MRSA, Strain 22, HA-MRSA, read-out: MIC
[14] = MRSA, Strain 23, CA-MRSA PVL+, read-out: MIC
[15] = MRSA, Strain 24, CA-MRSA PVL+, read-out: MIC
[16] = MRSA, Strain 25, CA-MRSA PVL neg, read-out: MIC
[17] = Strain 10, hVISA, read-out: MIC
[18] = VISA, Strain 11, VISA, read-out: MIC
[19] = VISA, Strain 12, VISA, read-out: MIC
[20] = VRSA, Strain 1, VRSA, read-out: MIC
[21] = VRSA, Strain 2, VRSA, read-out: MIC
[22] = VRSA, Strain 3, VRSA, read-out: MIC
[23] = VRSA, Strain 4, VRSA, read-out: MIC
[24] = VRSA, Strain 5, VRSA, read-out: MIC
[25] = range over 25 S. aureus strains, read-out: MICs of each agent alone

Row | SMILES | MIC [1] | MIC [2] | MIC [3] | MIC [4] | MIC [5] | MIC [6] | MIC [7] | MIC [8] | MIC [9] | MIC [10] | MIC [11] | MIC [12] | MIC [13] | MIC [14] | MIC [15] | MIC [16] | MIC (Strain 9, hVISA, read-out: MIC) | MIC [17] | MIC [18] | MIC [19] | other results
1 | CC(=O)NC[C@H]1CN(c2ccc(N3CCOCC3)c(F)c2)C(=O)O1 [Linezolid, linezolid] | 2 µg/mL | 4 µg/mL | 4 µg/mL | 2 µg/mL | 4 µg/mL | 4 µg/mL | 4 µg/mL | 4 µg/mL | 4 µg/mL | 4 µg/mL | 4 µg/mL | 4 µg/mL | 4 µg/mL | 4 µg/mL | 4 µg/mL | 4 µg/mL | 4 µg/mL | 2 µg/mL | 2 µg/mL | 4 µg/mL | MIC [20]: 2 µg/mL; MIC [21]: 4 µg/mL; MIC [22]: 2 µg/mL; MIC [23]: 4 µg/mL; MIC [24]: 2 µg/mL; MIC [25]: 2 to 4 µg/mL
2 | CCCCCCCCCC(=O)N[C@@H](Cc1c[nH]c2ccccc12)C(=O)N[C@H](CC(N)=O)C(=O)N[C@@H](CC(=O)O)C(=O)N[C@@H]1C(=O)NCC(=O)N[C@@H](CCCN)C(=O)N[C@@H](CC(=O)O)C(=O)N[C@H](C)C(=O)N[C@@H](CC(=O)O)C(=O)NCC(=O)N[C@H](CO)C(=O)N[C@@H]([C@H](C)CC(=O)O)C(=O)N[C@@H](CC(=O)c2ccccc2N)C(=O)O[C@@H]1C [Daptomycin, daptomycin] | 0.5 µg/mL | 0.5 µg/mL | 0.5 µg/mL | 0.5 µg/mL | 0.25 µg/mL | 0.5 µg/mL | 1 µg/mL | 0.5 µg/mL | 0.5 µg/mL | 0.5 µg/mL | 0.5 µg/mL | 0.5 µg/mL | 0.5 µg/mL | 1 µg/mL | 0.5 µg/mL | 0.5 µg/mL | 1 µg/mL | 0.5 µg/mL | 4 µg/mL | 2 µg/mL | MIC [20]: 0.5 µg/mL; MIC [21]: 0.25 µg/mL; MIC [22]: 0.5 µg/mL; MIC [23]: 0.5 µg/mL; MIC [24]: 0.25 µg/mL; MIC [25]: 0.25 to 4 µg/mL
3 | Nc1nc(/C(=N/O)C(=O)N[C@@H]2C(=O)N3C(C(=O)O)=C(/C=C4\CCN([C@@H]5CCNC5)C4=O)CS[C@H]23)ns1 [Ceftobiprole, ceftobiprole] | 2 µg/mL | 1 µg/mL | 1 µg/mL | 1 µg/mL | 2 µg/mL | 1 µg/mL | 2 µg/mL | 2 µg/mL | 1 µg/mL | 1 µg/mL | 2 µg/mL | 1 µg/mL | 2 µg/mL | 1 µg/mL | 1 µg/mL | 2 µg/mL | 2 µg/mL | 2 µg/mL | 1 µg/mL | 0.5 µg/mL | MIC [20]: 1 µg/mL; MIC [21]: 1 µg/mL; MIC [22]: 2 µg/mL; MIC [23]: 2 µg/mL; MIC [24]: 0.5 µg/mL; MIC [25]: 0.5 to 2 µg/mL
